Reference: US20080081781A1, “Methods and compositions for the treatment of metabolic syndrome” (priority 2004, published 2008)
Where two headings read alike, the source gives them in different places.

Assays:
LDLR mRNA = LDLR mRNA levels in Bel-7402 cells (quantitative RT-PCR); assay type: cell-based, human
Method: Bel-7402 cells were treated with 0, 0.5, 1, 2.5, 5, μg/ml of berberine or 2.5, 7.5 and 15 μg/ml of berberine sulfate. The cells were then centrifuged and washed and LDLR mRNA was extracted. LDLR mRNA levels were then measured using scan quantitative RT-PCR, (FIGS. 3 A and B).

LDLR = experiment: Cell surface LDLR protein on Bel-7402 cells (FACS); assay type: cell-based, human; details: Bel-7402 cells treated with 5 μg/ml
Method: Bel-7402 cells treated with 5 μg/ml of berberine were detached with cell removal buffer containing EDTA, washed and resuspended in FACS solution (PBS with 0.5% BSA and 0.02% sodium azide) at a density of 1×10^6 cells/ml. Cells were then incubated with monoclonal antibody to LDLR (Santa Cruz Biotechnology, Inc., Santa Cruz, Calif.) at a final dilution of 1:50 and left at room temperature for 1 hour. The cells were then reacted with isotope matched, nonspecific mouse IgG as a control for nonspecific staining. The cells were then washed and stained with FITC conjugated goat antibody to mouse IgG (Santa Cruz Biotechnology, Inc., Santa Cruz, Calif., 1:100 dilution) and the fluorescence intensity was analyzed by FACS (FACSort, Becton Dickinson, Franklin Lakes, N.J.).

LDLR promoter = LDLR promoter activity, pLDLR234Luc reporter in HepG2 cells; assay type: cell-based, human; details: pLDLR234Luc HepG2, LPDS or LPDS and cholesterol medium, 8 hour treatment
From the text: HepG2 cells were transfected with the reporter construct pLDLR234Luc, which contains the SRE- I motif and the sterol-independent regulatory element that mediates the cytokine oncostatin M-induced transcription of the LDLR gene.

HMG-CoA reductase mRNA = HMG-CoA reductase mRNA stability in HepG2 cells; assay type: cell-based, human; details: HepG2, berberine 15 hours then actinomycin D
Method: HepG2 cells were cultured and then left alone or treated with berberine for 15 hours. After 15 hours, actinomycin D (5 μg/ml) was added to cells at 0, 20, 40, 60, 90, 120, or 150 minutes. Total mRNA was isolated and analyzed by Northern blot for the amount of LDLR mRNA. […] In contrast, the mRNA stability of HMG-CoA reductase was not altered by berberine.

hyperglycemic rats = experiment: Hyperglycemic HFHC diet/streptozotocin Wistar rats: blood glucose, serum insulin, ISI, serum lipids; assay type: in vivo, Wistar rat; details: for reduction of fasting blood glucose vs untreated rats on same HFHC diet: 14 days
Method: Nineteen Wistar rats (Male, 250g, the Institute of Experiment Animal Sciences, Chinese Academy of Medical Sciences, Beijing) were fed high fat and high cholesterol (HFHC) diet containing 25% lard, 20% sucrose and 5% yolk powder (Institute of Experiment Animal Sciences) for 4 weeks to induce insulin resistance status. Then, after fasting for 24 hours, 20 mg/kg of streptozotocin (Sigma) dissolved in 0.01 M citric acid buffer (pH 4.3) was injected via the tail vein. A week later, rats with blood glucose concentrations over 11.1 mmol/L were considered hyperglycemic and divided into two groups of 7 and one group of 5 as the control.
The rats in the two groups of 7 were treated with berberine orally twice a day for 14 days, at 8:00 am and 5:00 pm, with a total dose of berberine at 75 mg/kg/day or 150 mg/kg/day, respectively. Blood samples were taken by tail snip after 4 hours fasting on indicating days of treatment, and blood glucose was measured. On the last day of the experiment, all of the rats fasted overnight and were then sacrificed.
The livers were dissected and stored in liquid nitrogen for RNA extraction, real-time RT-PCR and PKC activity assay. Total blood samples were also collected to assay fasting blood glucose and serum insulin levels. The insulin levels were analyzed using radio-immunoassay (Linco Research, St Charles, Mo.). The insulin sensitivity indexes (ISI) were calculated according to the formula: 10^4/(fasting serum insulin X fasting blood glucose) (Hanson, Am. J. Epidemiol. 15 1(2), 190-198 (2000)). The insulin level and ISI of normal rats were also determined for comparison. […] It also elevated the fasting blood glucose from 7 to 12.8 mmol/L (P<0.001).

[1] = system: patients with metabolic syndrome; experiment: Berberine in patients with metabolic syndrome (Table 10); assay type: in vivo, human; details: for Blood Pressure / Blood Cholesterol / Blood Insulin / Blood Triglyceride / FBG (fasting blood glucose): patients with metabolic syndrome (n = 28); for Blood Cholesterol / Blood Insulin / Blood Triglyceride / FBG (fasting blood glucose): means ± SEs
From the text: Twenty-eight patients 28 (male/female, 17/11; age, 57±8 y) were diagnosed as having metabolic syndrome if they met three or more of the following criteria: fasting blood glucose>7 mmol/L, serum triglyceride>1.7 mmol/L, fasting blood insulin>13 mmcU/mL, blood pressure>135/85 and/or BMI>23. (Eckel, Lancet 365 (9468), 1415-28 (2005); Executive Summary, JAMA 285, 2486-2497 (2001); Balkau, Diabet. Med. 16, 442-443 (1999)) The patients were enrolled in this study at the Nanjing First Hospital, Nanjing, China. The patients were requested to end previous medications or therapies for at least two weeks prior to the beginning of the study.
The patients were then given 1 gram of berberine per day, orally for two months. Blood samples were taken both before and after two months of berberine treatment. Fasting blood levels of glucose, LDL-c, cholesterol, HDL-c, triglyceride and blood insulin were measured using standard methods routinely applied in hospitals. Liver and kidney functions were also monitored in the patients.

PPAR-r mRNA = PPAR-r mRNA expression in liver cells; assay type: cell-based; details: liver cells (data not shown)
From the text: The effect of berberine on InsR was further confirmed in another hepatoma cell line, Bel-7402 […] (FIG. 18). […] The expression of PPAR-r mRNA in liver cells was not changed by berberine (data not shown).

hyperlipidemia patients = details: for Cholesterol / HDL Protein / LDL Protein / Triglycerides: hyperlipidemia patients, n = 32
Method: After three months, fasting serum concentrations of cholesterol, triglycerides, HDL and LDL were measured using standard blood lipid tests.

[2] = 150 mg/kg/day, 14 day treatment
[3] = After BBR treatment 1 g/day, Bid, 2 months
[4] = After berberine treatment (3 months)
[5] = Before berberine treatment (baseline)

`COc1ccc2cc3[n+](cc2c1OC)CCc1cc2c(cc1-3)OCO2` [berberine] was tested, and the “increase of LDLR mRNA expression” value (LDLR mRNA; 5 μg/ml) was 2.3 fold, the “LDLR mRNA expression, dose dependence” value (LDLR mRNA; berberine 0.5-5 μg/ml, berberine sulfate 2.5, 7.5, 15 μg/ml) was “increased LDLR mRNA expression in a dose dependent fashion” and the “increase of cell surface LDLR protein expression” value (LDLR) was 4 times. For the same molecule, the LDLR promoter activity (LDLR promoter) was “no effect”, the “mRNA stability of HMG-CoA reductase” value (HMG-CoA reductase mRNA) was “not altered” and the “reduction of fasting blood glucose vs untreated rats on same HFHC diet” value (hyperglycemic rats; 75 mg/kg/day orally) was 22%. The “reduction of fasting blood glucose vs untreated rats on same HFHC diet” value (hyperglycemic rats; 150 mg/kg/day orally) was 33%, the “reduction of LDL-c vs control animals on same HFHC diet” value (hyperglycemic rats; [2]) was 33% and the “reduction of cholesterol vs control animals on same HFHC diet” value (hyperglycemic rats; [2]) was 25%. For the same molecule, the “reduction of triglyceride vs control animals on same HFHC diet” value (hyperglycemic rats; [2]) was 24%, the “fasting serum insulin levels” value (hyperglycemic rats; insulin resistant HFHC rats) was “significantly reduced the serum insulin levels” and the “fasting blood glucose after treatment” value ([1]; 1 gram per day orally, two months, Mean ±SE, before 10.7±0.56) was 8.0 ± 0.45 mmol/L. The cholesterol after treatment ([1]; 1 gram per day orally, two months, before 6.1±±0.11) was 4.7 ± 0.16 mmol/L, the “blood pressure after treatment” value ([1]; 1 gram per day orally, two months, before 156/86) was 133/79 and the “Blood Pressure” value [1, 3] was 133/79. For the same molecule, the “Blood Cholesterol” value [1, 3] was 4.7 ± 0.16 mmol/L, the “Blood Insulin” value [1, 3] was 12.1 ± 1.35 mlU/L and the “Blood Triglyceride” value [1, 3] was 1.47 ± 0.14 mmol/L. The “FBG (fasting blood glucose)” value [1, 3] was 8.0 ± 0.45 mmol/L, the “Blood Pressure” value ([1]; Before BBR treatment) was 156/86 and the “Blood Cholesterol” value ([1]; Before BBR treatment) was 6.1 ± 0.11 mmol/L. The “Blood Insulin” value ([1]; Before BBR treatment) was 17 ± 2.15 mlU/L, the “Blood Triglyceride” value ([1]; Before BBR treatment) was 2.0 ± 0.22 mmol/L and the “FBG (fasting blood glucose)” value ([1]; Before BBR treatment) was 10.7 ± 0.56 mmol/L. The “expression of PPAR-r mRNA” value (PPAR-r mRNA) was “not changed”, the “kidney functions (creatine, blood urea nitrogen, total bilirubin)” value (hyperlipidemia patients; human, in vivo) was “did not change kidney functions” and the “reduction of alanine aminotransaminase” value (hyperlipidemia patients; human, in vivo) was “approximately 48%”. The “reduction of aspartate aminotransaminase” value (hyperlipidemia patients; human, in vivo) was about 36%, the “reduction of gamma glutamyl transpeptidase” value (hyperlipidemia patients; human, in vivo) was about 41% and the side effects (hyperlipidemia patients; human, in vivo) was “no side effects were observed with the exception of one patient having mild constipation during treatment”. For the same molecule, the Cholesterol (hyperlipidemia patients; [4]) was 4.2 ± 0.9 mmol/L, the “HDL Protein” value (hyperlipidemia patients; [4]) was 1.1 ± 0.3 and the “LDL Protein” value (hyperlipidemia patients; [4]) was 2.4 ± 0.6 mmol/L. For the same molecule, the Triglycerides (hyperlipidemia patients; [4]) was 1.5 ± 0.9 mmol/L, the Cholesterol (hyperlipidemia patients; [5]) was 5.9 ± 0.7 mmol/L and the “HDL Protein” value (hyperlipidemia patients; [5]) was 1.1 ± 0.3. The “LDL Protein” value (hyperlipidemia patients; [5]) was 3.2 ± 0.7 mmol/L and the Triglycerides (hyperlipidemia patients; [5]) was 2.3 ± 1.8 mmol/L.
